What all share (format): biochemical
The target of one assay is T1, human Tie2 (Homo sapiens, UniProt Q02763).
T1 construct: human Tie2 corresponding to the amino acids of the intracellular domain 774-1124; made in house; host or cells: baculovirus expression (pFastBacGT)
Description: Tie2 kinase inhibition, phosphorylation of PLCγ substrate, scintillation Flash Plate. The note with it: read-out: Tie2, concentration that inhibits 50% of the kinase activity. On the procedure: The inhibitory effect of the compounds is determined in an in vitro test of phosphorylation of substrate via a scintillation technique (96-well plate of basic Flash Plate type).
The coding sequence of human Tie2 corresponding to the amino acids of the intracellular domain 774-1124 was introduced into a pFastBacGT baculovirus expression vector in the form of a GST fusion protein. GST-Tie2 was purified and activated by autophosphorylation. The substrate is composed of residues 658 to 850 of the PLCγ expressed and purified in the form of a GST fusion protein.
The kinase activity of Tie2 is measured in a MOPS 20 mM pH 7.4 buffer, containing 10 mM MgCl2, 10 mM MnCl2 and 1 mM DTT. The compounds are initially diluted in 100% DMSO, then prepared as a 10× solution in 30% DMSO/70% buffer. […] The radioactivity in each well is measured using a Trilux-βWallac radioactivity counter.
The background noise is determined by measuring the radioactivity in four different wells containing ATP (radiolabeled and cold) and the substrate, in the absence of enzyme and of compound. The control activity is measured in four different wells containing all the reagents, but in the absence of compound.
The inhibition of the Tie2 activity is calculated and expressed as a percentage of inhibition relative to the control activity determined in the absence of compound.

In the next assay the target is PDGFRβ (Homo sapiens, UniProt P09619). Description: PDGFR kinase phosphorylation activity by radioactive labeling. The settings on record: read-out: PDGFRβ, concentration that inhibits 50% of the kinase activity. Here is the method:
4. Screening of Molecules by Measuring, by Radioactive Labeling, the PDGFR Kinase Phosphorylation Activity in the Presence of PLCγ Substrate The test is carried out in a similar manner to that carried out with the FLT1 enzyme by using, instead of 13 nM of Flt1, 16 nM of PDGFR enzyme and mixed in the 96-well plates are 18 μl of GST-PDGFR enzyme at 4 mg/ml (for a purity of 80%) batch VLT802.

The next assay addresses VEGFR3 (Homo sapiens, UniProt P35916). Description: VEGFR3 kinase inhibition (Table 1). The note with it: read-out: VEGFR3, concentration that inhibits 50% of the kinase activity.

T1 sequence (Q02763 774-1124): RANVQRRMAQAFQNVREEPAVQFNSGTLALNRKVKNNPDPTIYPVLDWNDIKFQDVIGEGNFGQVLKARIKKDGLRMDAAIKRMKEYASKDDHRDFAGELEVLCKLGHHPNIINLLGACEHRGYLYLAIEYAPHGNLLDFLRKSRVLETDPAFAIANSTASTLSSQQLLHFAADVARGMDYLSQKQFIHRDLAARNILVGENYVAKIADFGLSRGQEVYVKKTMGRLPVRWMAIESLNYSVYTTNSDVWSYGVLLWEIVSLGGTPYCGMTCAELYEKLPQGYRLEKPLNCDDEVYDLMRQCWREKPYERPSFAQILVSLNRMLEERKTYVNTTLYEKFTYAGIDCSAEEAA
Sequence of PDGFRβ (P09619 33-1106, species assumed): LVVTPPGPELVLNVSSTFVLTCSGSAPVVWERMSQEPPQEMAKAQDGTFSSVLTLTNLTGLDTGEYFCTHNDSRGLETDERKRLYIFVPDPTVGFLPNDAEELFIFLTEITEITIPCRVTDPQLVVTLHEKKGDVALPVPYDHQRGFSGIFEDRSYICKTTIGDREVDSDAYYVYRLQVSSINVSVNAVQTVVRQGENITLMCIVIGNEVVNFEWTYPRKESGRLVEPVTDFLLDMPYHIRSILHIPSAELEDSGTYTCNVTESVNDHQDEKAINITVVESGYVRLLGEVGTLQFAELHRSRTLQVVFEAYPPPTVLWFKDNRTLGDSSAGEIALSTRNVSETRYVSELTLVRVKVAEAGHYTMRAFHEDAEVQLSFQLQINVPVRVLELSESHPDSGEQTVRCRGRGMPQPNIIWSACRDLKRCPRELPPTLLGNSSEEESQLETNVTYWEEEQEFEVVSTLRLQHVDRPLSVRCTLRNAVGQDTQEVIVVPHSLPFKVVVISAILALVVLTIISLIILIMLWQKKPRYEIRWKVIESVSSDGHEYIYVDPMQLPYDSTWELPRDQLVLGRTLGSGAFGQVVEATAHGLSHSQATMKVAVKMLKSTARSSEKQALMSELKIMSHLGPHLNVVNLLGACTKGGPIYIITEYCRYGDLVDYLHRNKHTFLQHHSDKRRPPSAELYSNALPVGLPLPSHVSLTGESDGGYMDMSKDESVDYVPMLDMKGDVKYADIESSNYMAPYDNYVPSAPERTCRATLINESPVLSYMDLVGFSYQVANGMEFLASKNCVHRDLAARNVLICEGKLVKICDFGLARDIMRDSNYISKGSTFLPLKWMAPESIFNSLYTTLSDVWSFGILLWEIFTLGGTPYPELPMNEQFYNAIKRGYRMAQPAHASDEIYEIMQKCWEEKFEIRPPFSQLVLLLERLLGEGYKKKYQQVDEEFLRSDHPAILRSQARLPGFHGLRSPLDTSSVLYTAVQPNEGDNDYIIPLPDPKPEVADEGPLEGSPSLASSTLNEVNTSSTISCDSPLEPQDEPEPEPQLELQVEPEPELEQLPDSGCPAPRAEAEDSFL
Sequence of VEGFR3 (P35916 25-1363, species assumed): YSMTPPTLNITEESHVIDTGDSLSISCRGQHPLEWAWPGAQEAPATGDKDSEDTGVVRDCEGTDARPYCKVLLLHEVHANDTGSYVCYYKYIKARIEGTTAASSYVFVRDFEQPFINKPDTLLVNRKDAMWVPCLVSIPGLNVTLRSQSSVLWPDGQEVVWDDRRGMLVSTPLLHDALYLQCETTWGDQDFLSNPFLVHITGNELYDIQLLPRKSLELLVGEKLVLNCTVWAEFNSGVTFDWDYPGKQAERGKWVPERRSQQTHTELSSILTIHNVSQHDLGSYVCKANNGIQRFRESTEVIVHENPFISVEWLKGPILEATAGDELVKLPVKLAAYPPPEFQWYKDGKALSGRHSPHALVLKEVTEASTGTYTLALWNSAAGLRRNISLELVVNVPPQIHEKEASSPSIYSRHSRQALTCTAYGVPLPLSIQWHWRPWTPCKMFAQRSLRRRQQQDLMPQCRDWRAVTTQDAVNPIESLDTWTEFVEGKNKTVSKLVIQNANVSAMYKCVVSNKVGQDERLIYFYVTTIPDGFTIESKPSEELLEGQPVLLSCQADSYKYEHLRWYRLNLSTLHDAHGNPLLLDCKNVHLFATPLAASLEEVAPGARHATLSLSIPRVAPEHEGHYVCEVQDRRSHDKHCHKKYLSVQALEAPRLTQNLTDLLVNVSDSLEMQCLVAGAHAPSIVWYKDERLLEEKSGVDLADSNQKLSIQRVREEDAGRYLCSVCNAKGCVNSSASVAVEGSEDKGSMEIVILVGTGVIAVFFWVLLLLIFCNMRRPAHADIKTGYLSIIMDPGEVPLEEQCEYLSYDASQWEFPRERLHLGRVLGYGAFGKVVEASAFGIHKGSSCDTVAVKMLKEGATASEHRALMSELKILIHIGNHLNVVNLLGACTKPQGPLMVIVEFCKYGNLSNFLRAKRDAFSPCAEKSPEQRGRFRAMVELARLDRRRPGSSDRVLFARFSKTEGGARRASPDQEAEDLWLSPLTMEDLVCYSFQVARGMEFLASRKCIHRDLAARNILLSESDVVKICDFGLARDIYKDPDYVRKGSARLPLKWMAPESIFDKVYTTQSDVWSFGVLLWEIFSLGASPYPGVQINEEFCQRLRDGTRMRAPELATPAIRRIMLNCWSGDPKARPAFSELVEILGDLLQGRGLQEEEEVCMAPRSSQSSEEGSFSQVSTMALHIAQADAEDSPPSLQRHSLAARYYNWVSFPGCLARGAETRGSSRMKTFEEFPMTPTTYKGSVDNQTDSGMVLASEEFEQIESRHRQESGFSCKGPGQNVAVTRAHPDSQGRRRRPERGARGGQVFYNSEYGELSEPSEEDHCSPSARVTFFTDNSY

On to `Cl.NC(=O)c1n[nH]cc1NCc1cc(F)cc(NC(=O)Nc2ccc(C(F)(F)F)cc2Cl)c1` [Example 1, 4-{3-[3-(2-Chloro-4-trifluoromethylphenyl)ureido]-5-fluorobenzylamino}-1H-pyrazole-3-carboxamide hydrochloride], for which the IC50 on human Tie2 is 0.036 µM; at PDGFRβ, 0.011 µM; on VEGFR3, 0.003 µM.

`Cl.NC(=O)c1n[nH]cc1NCc1cc(F)cc(NC(=O)Nc2ccc(C(F)(F)F)cc2F)c1` [Example 2, 4-{3-[3-(2-Fluoro-4-trifluoromethylphenyl)ureido]-5-fluorobenzylamino}-1H-pyrazole-3-carboxamide hydrochloride]: the IC50 was found to be 0.039 µM at human Tie2 and 0.02 µM on PDGFRβ.

(Values after patent US8367715B2, “Pyrazole derivatives, preparation thereof, and therapeutic use thereof” (priority 2009, dated 2013).)
